Measured values as given in patent publication US20250312468A1, “ANTI-PROTAC ANTIBODIES AND COMPLEXES” (Merck Patent GmbH, priority 2021, published 2025).

Experiments:
[1] = system: HCC827; experiment: CellTiter-Glo cell viability assay (VHH-based PAX); conditions: HCC827, PROTAC alone
Method: (§1) Several cell viability experiments were performed following the procedure described below: Cells were seeded in different media into white cell culture-treated flat and clear bottom multiwell plates followed by overnight incubation in a humid chamber at 37° C. and 5% CO2. Complexation was performed as described in chapter 7.4.
(§2) The solutions were added to the cells based on the antibody concentration using nanodrop dispension using a Tecan D300e Digital Dispenser and all wells were normalized to the same volume using 0.3% TW20 in PBS pH 7.4 and DMSO to a final solvent concentration of 0.05% DMSO and 0.003% TW20. Incubation was performed at 37° C. at 5% or 10% CO2 dependent on the medium. The assay was developed after 3 days if not otherwise stated using CellTiter-Glo Luminescent Cell Viability Assay as described in the manufacturer's protocol. In brief, the plates were equilibrated to room temperature for 30 minutes. 100 mL CellTiter-Glo Buffer were added to the CellTiter-Glo Substrate Flask and mixed well. 30 μL of the reagent was transferred to each well. After incubation for 3 minutes at room temperature while shaking at 550 rpm, the plate was incubated for another 10 minutes at room temperature. The luminescence was read on an Envision reader from Perkin Elmer. Solvent alone and Bortezomib (1.0E-05 M) served as high control (100% viability) and low control (0% viability), respectively. Raw data were converted into percent cell viability relative to the high and low control, which were set to 100% and 0%, respectively. […] The concentration corresponds to the concentration of PROTACs in the PAX.

[2] = system: A431; experiment: CellTiter-Glo cell viability assay (VHH-based PAX); conditions: A431, PROTAC alone
Method: as §1, §2

[3] = system: HEPG2 cells; experiment: CellTiter-Glo cell viability assay (VHH-based PAX); conditions: HEPG2, PROTAC alone
Method: as §1, §2

[4] = system: SKOV3; experiment: CellTiter-Glo cell viability assay (VHH-based PAX); conditions: SKOV3, PROTAC alone
Method: as §1, §2

[5] = system: MCF7; experiment: CellTiter-Glo cell viability assay (VHH-based PAX); conditions: MCF7, PROTAC alone
Method: as §1, §2

[6] = system: MDAMB468 cells; experiment: CellTiter-Glo cell viability assay (VHH-based PAX); conditions: MDAMB468, PROTAC alone
Method: as §1, §2

[7] = target: CD33xMIC13; experiment: SPR affinity of VHH clone (antibody fusion) to PROTACs; conditions: CD33xMIC13 immobilized, 25° C., read-out: KD [M] for antibody binding to PROTAC
Method: (§3) The kinetic and affinity parameters of protein-PROTAC interactions were evaluated by SPR. The anti-PROTAC VHH clones MIC5-MIC14 were immobilized as CD33 or CLL1 antibody fusion (the manufacturing of fusion proteins and the used linker is described in chapter 7.9) onto a CM5 (Series S) sensor chip via the standard amine coupling procedure, at 25° C. Prior to immobilization, the carboxymethylated surface of the chip was activated with 400 mM 1-ethyl-3-(3-dimethylaminopropyl)-carbodiimide and 100 mM N-hydroxysuccinimide for 7 min. Hit anti-PROTAC VHH as CD33 and CLL1 antibody fusions were diluted to 10 μg/ml in 10 mM Acetate at pH 4.5 and immobilized on the activated surface chip for 7 min, in order to reach 3,000 to 6,000 response units (RU). The remaining activated carboxymethylated groups were blocked with a 10 min injection of 1 M ethanolamine pH 8. HBS-N, which consists of 10 mM HEPES pH 7.4 and 150 mM NaCl, was used as the background buffer during immobilization. PROTACs were prediluted in DMSO, diluted 1:50 in running buffer (12 mM phosphate pH 7.4, 137 mM NaCl, 2.7 mM KCl, 0.05% Tween20, 2% DMSO) and injected at ten different concentrations using two-fold dilution series, from 1 μM to 0.002 μM. A DMSO solvent correction (1%-3%) was performed to account for variations in bulk signal and to achieve high-quality data. Interaction analysis cycles consisted of a 300 sec sample injection (30 μL/min; association phase) followed by 900 sec of buffer flow (dissociation phase).
(§4) All sensorgrams were processed by first subtracting the binding response recorded from the control surface (reference flow-channel), followed by subtracting of the buffer blank injection from the active flow-channel (target protein immobilized). All datasets were fit to a simple 1:1 Langmuir interaction model to determine the kinetic rate constants. Experiments were performed on a Biacore 8k+ (Cytiva, Uppsala, Sweden) at 25° C. and the interactions were evaluated using the provided Biacore Insight Evaluation software.

[8] = target: CD33xMIC9; experiment: as above; conditions: CD33xMIC9 immobilized, 25° C., read-out: KD [M] for antibody binding to PROTAC
Method: as §3, §4

[9] = target: CD33xMIC14; experiment: as above; conditions: CD33xMIC14 immobilized, 25° C., read-out: KD [M] for antibody binding to PROTAC
Method: as §3, §4

[10] = target: CD33xMIC11; experiment: as above; conditions: CD33xMIC11 immobilized, 25° C., read-out: KD [M] for antibody binding to PROTAC
Method: as §3, §4

[11] = target: CD33xMIC6; experiment: as above; conditions: CD33xMIC6 immobilized, 25° C., read-out: KD [M] for antibody binding to PROTAC
Method: as §3, §4

[12] = target: MIC2; experiment: SPR binding of PROTACs to immobilized antibody MIC2; conditions: MIC2, 1:1 kinetic binding model
Method: The binding affinities of hit antibodies MIC1 and MIC2 to a diverse set of VH032-based PROTACs (FIGS. 8A-8B) was determined by surface plasmon resonance (SPR) in a Biacore T200 instrument. The running buffer consist of PBS, 0.05% Tween-20, 2% DMSO and temperature and flow rate were set to 30° C. and 30 μL/min, respectively. The assay setup is depicted exemplarily in FIG. 7A. CM5 sensor chips were coated with antibody (=ligand; 2500 RU) using standard EDC/NHS chemistry. PROTACs (=analytes) were serially diluted (1 μM-1.9 nM) in running buffer, injected to the instrument in consecutive runs and were captured by the antibody resulting in an increase of the corresponding SPR response. After the association step (300 s), running buffer was injected for 600 s and the PROTAC dissociated from the antibody leading to signal decrease. After each run, residual bound PROTAC was removed from the immobilized antibody by injection of 10 mM glycine/HCl, pH 1.5 for 2×30 s regenerating the antibody for the next association and dissociation cycle. To compensate for matrix effects, the measured SPR response signal was subtracted by the analyte response to an inactivated (EDC/NHS, ethanol amine) reference surface omitting the ligand. Furthermore, a DMSO solvent correction was performed and analyte response was subtracted by the running buffer signal. The corrected response was fitted by a 1:1 kinetic binding model yielding the on- (kon) and off-rate (koff) of the PROTAC, as well as its dissociation constant (KD).

Q: How did the IC50 [1] turn out when Cc1ncsc1-c1ccc([C@H](C)NC(=O)[C@@H]2C[C@@H](O)CN2C(=O)[C@@H](NC(=O)COCCCOCCNC(=O)C[C@@H]2N=C(c3ccc(Cl)cc3)c3c(sc(C)c3C)-n3c(C)nnc32)C(C)(C)C)cc1 [ARV771] was run?
A: 91 nM

Q: What about the IC50 [2] of the same molecule?
A: 65 nM

Q: And the IC50 [3]?
A: 89 nM

Q: What about the IC50 [4] of the same molecule?
A: 32 nM

Q: What about the IC50 [5] of the same molecule?
A: 26 nM

Q: And the IC50 [6]?
A: 49 nM

Q: What about the Kd [7] of the same molecule?
A: 1.3e-08 M

Q: And the Kd [8]?
A: 4e-09 M

Q: And the Kd [9]?
A: 1.4e-07 M

Q: What about the Kd [10] of the same molecule?
A: 3.7e-09 M

Q: And the Kd [11]?
A: 5.3e-08 M

Q: And the Kd [12]?
A: > 1000 nM

Q: Which results are given for Cc1ncsc1-c1ccc(CNC(=O)[C@@H]2C[C@@H](O)CN2C(=O)[C@@H](NC(=O)CCCCCCCCCCNC(=O)c2cc3c(cc2CS(C)(=O)=O)-c2cn(C)c(=O)c4[nH]cc(c24)CN3c2ncc(F)cc2F)C(C)(C)C)cc1 [GNE987]?
A: IC50 [1]: 0.77 nM; IC50 [2]: 0.34 nM; IC50 [3]: 2.6 nM; IC50 [4]: 0.61 nM; IC50 [5]: 0.15 nM; IC50 [6]: 0.41 nM; Kd [7]: 2.3e-08 M; Kd [8]: 4.3e-08 M; Kd [9]: 1e-08 M; Kd [10]: 2e-08 M; Kd [11]: 4.1e-08 M; Kd [12]: 1.9 nM; koff [12]: NM/4.10E−05 1/s; kon [12]: NM/2.20E+04 1/Ms
